Results on 18 compounds are retold here after patent publication US20060106106A1, “Beta-hydroxyphenylalkylamines and their use for treating glaucoma” (priority 2002, published 2006).

In data set [1] the target is T1, 5-HT2A (Rattus norvegicus, UniProt P14842).
T1 construct: [^3H]myo-inositol-labeled A7r5 rat vascular smooth muscle cells; endogenous in cells; host or cells: A7r5 rat vascular smooth muscle cells
The data set can be described thus: 5-HT2 Functional Assay: [Ca2+]i Mobilization (FLIPR) in A7r5 cells. It counts as cell-based. To be noted: for Emax: A7r5 cells, FLIPR, percentage of maximum 5-HT-induced response, read-out: 5-HT2A % Emax (Ca+2 Assay). How it is done: 5-HT2 Functional Assay: [Ca^2+]i Mobilization
The receptor-mediated mobilization on intracellular calcium ([Ca^2+]i) was studied using the Fluorescence Imaging Plate Reader (FLIPR) instrument. Rat vascular smooth muscle cells, A7r5, were grown in a normal media of DMEM/10% FBS and 10 μg/mL gentamycin. Confluent cell monolayers were trypsinized, pelleted, and re-suspended in normal media. Cells were seeded in a 50 μL volume at a density of 20,000 cells/well in a black wall, 96-well tissue culture plate and grown for 2 days.
On the day of the experiment, one vial of FLIPR Calcium Assay Kit dye was re-suspended in 50 mL of a FLIPR buffer consisting of Hank's Balanced Salt Solution (HBSS), 20 mM HEPES, and 2.5 mM probenecid, pH 7.4. Cells were loaded with the calcium-sensitive dye by addition of an equal volume (50 μL) to each well of the 96-well plate and incubated with dye for 1 h at 23° C.
Compounds were diluted 1:50 in 20% DMSO/20% Ethanol. For “hit” screening, compounds were further diluted 1:10 in FLIPR buffer and tested at a final concentration of 10 μM.
The compound plate and cell plate were placed in the FLIPR instrument. At the beginning of an experimental run, a signal test was performed to check the basal fluorescence signal from the dye-loaded cells and the uniformity of the signal across the plate. The basal fluorescence was adjusted between 8000-12000 counts by modifying the exposure time, the camera F-stop, or the laser power. Instrument settings for a typical assay were the following: laser power 0.3-0.6 W, camera F-stop F/2, and exposure time 0.4 sec. An aliquot (25 μL) of the test compound was added to the existing 100 μL dye-loaded cells at a dispensing speed of 50 μL/sec. Fluorescence data were collected in real-time at 1.0 sec intervals for the first 60 secs and at 6.0 sec intervals for an additional 120 secs. Responses were measured as peak fluorescence intensity minus basal and where appropriate were expressed as a percentage of a maximum 5-HT-induced response.

Data set [2] deals with T1, 5-HT2A. The data set can be described thus: 5-HT2 Functional Assay: Phosphoinositide (PI) Turnover Assay in A7r5 cells. The format is cell-based. To be noted: for Emax: A7r5 cells, relative to 5-HT (set at 100%). The procedure: 5-HT2 Functional Assay: Phosphoinositide (PI) Turnover Assay
The relative agonist activity of serotonergic compounds at the 5-HT2 receptor can be determined in vitro using the ability of the compounds to stimulate the production of [^3H]inositol phosphates in [^3H]myo-inositol-labeled A7r5 rat vascular smooth muscle cells by their ability to activate the enzyme phospholipase C. These cells are grown in culture plates, maintained in a humidified atmosphere of 5% CO2 and 95% air and fed semi-weekly with Dulbecco's modified Eagle medium (DMEM) containing 4.5 g/L glucose and supplemented with 2 mM glutamine, 10 μg/ml gentamicin, and 10% fetal bovine serum. For the purpose of conducting the phosphoinositide (PI) turnover experiments, the A7r5 cells are cultured in 24-well plates as previously [J. Pharmacol. Expt. Ther. 286, 411 (1998)]. Confluent cells are exposed for 24-30 hrs to 1.5 μCi [^3H]-myo-inositol (18.3 Ci/mmol) in 0.5 ml of serum-free medium. Cells are then rinsed once with DMEM/F-12 containing 10 mM LiCl prior to incubation with the test agent (or solvent as the control) in 1.0 mL of the same medium for 1 hr at 37° C., after which the medium is aspirated and 1 ml of cold 0.1 M formic acid added to stop the reaction. The chromatographic separation of [^3H]-inositol phosphates ([^3H]-IPs) on an AG-1-X8 column is performed as previously described [J. Pharmacol. Expt. Ther. 286, 411 (1998)] with sequential washes with H2O and 50 mM ammonium formate, followed by elution of the total [^3H]-IPs fraction with 1.2 M ammonium formate containing 0.1 M formic acid. The eluate (4 mL) is collected, mixed with 15 ml scintillation fluid, and the total [^3H]-IPs determined by scintillation counting on a beta-counter. Concentration-response data are analyzed by the sigmoidal fit function of the Origin Scientific Graphics software (Microcal Software, Northampton, Mass.) to determine agonist potency (EC50 value) and efficacy (Emax). Serotonin (5-HT) is used as a positive control (standard) agonist compound and the efficacy of test compounds is compared to that of 5-HT (set at 100%).

Where a name gives a salt, the structure may show the parent alone.

T1 sequence (P14842 whole entry): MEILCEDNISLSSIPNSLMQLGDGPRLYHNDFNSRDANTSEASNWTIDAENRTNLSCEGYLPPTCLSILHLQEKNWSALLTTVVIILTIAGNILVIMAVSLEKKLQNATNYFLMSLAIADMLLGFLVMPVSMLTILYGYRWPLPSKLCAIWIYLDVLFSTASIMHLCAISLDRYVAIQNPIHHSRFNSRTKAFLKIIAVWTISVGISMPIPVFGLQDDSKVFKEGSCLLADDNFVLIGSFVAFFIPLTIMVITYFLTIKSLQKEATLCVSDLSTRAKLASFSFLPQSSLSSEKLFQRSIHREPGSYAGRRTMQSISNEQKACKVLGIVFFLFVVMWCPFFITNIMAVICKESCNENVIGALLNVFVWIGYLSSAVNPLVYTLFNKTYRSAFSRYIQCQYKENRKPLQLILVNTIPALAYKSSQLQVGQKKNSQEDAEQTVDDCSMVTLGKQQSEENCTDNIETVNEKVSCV

As to `COc1cc(C(O)CN)c(OC)cc1Br` (stereo not shown) [Compound 6, reference compound], the Emax in data set [1] amounted to 7.8%.

For the compound `COc1cc(C(O)C(C)N)c(OC)cc1Br` (single isomer, unassigned; (+)) [Compound 10, Hydrochloride], the maximal response (Emax) was 16% in data set [1] and 47% in data set [2].

Regarding `COc1ccc(OC)c(C(O)C(C)N)c1` (stereo not shown) [Compound 1, reference compound], the Emax in data set [1] amounted to 9%.

For `COc1cc(C(O)CN)c(OC)cc1CCCc1ccccc1` (racemic) [Compound 5, (±)1-Hydroxy-1-[4-(3-phenylpropyl)-2,5-dimethoxyphenyl]-2-aminoethane Hydrochloride, reference compound], the Emax in data set [1] was 3.1%.

Regarding `COc1cc(C(O)CN)c(OC)cc1CCCc1ccccc1` (racemic) (as salt: hydrochloride) [Compound 5, (±)1-Hydroxy-1-[4-(3-phenylpropyl)-2,5-dimethoxyphenyl]-2-aminoethane Hydrochloride], the melting point was 174 to 176 °C.

For the compound `COc1cc(C(OC)C(C)N)c(OC)cc1Br` (single isomer, unassigned; (+)) [Compound 15], in data set [1], the EC50 came to 1410 nM and the Emax is 31%.

Take `COc1cc([C@H](O)[C@@H](C)N)c(OC)cc1Br` [Compound 8, (+)-erythro-(1S,2R)-1-Hydroxy-1-(4-bromo-2,5-dimethoxyphenyl)-2-aminopropane Hydrochloride]: the Emax is 20% in data set [1] and 57% in data set [2]. In data set [2], this compound returned an EC50 of 8000 nM.

As to `COc1cc([C@H](OC)[C@@H](C)N)c(OC)cc1Br` [Compound 13, (+)-erythro-(1S,2R)-1-Methoxy-1-(4-bromo-2,5-dimethoxyphenyl)-2-aminopropane Oxalate], in data set [1], the concentration for a half-maximal effect (EC50) is 5040 nM and the Emax worked out at 49%. In data set [2], this compound gave an EC50 of 4610 nM and an Emax of 117%.

Turning to `COc1cc([C@@H](OC)[C@H](C)N)c(OC)cc1Br` (as salt: oxalate) [Compound 12, (−)-erythro-(1R,2S)-1-Methoxy-1-(4-bromo-2,5-dimethoxyphenyl)-2-aminopropane Oxalate], the melting point is 186 to 188 °C.

Regarding `CC[C@H](N)[C@H](O)c1cc(OC)c(Br)cc1OC` (as salt: oxalate) [Compound 7, (−)-erythro-(1R,2S)-1-Hydroxy-1-(4-bromo-2,5-dimethoxyphenyl)-2-aminobutane Oxalate], the melting point is 203 to 205 °C.

In turn, `COc1cc(C(O)C(C)N)c(OC)cc1Br` (single isomer, unassigned; (+)) (as salt: hydrochloride) [Compound 10] came in with a melting point of 213 to 214 °C.

As to `CC[C@H](N)[C@H](O)c1cc(OC)c(Br)cc1OC` [Compound 7, (−)-erythro-(1R,2S)-1-Hydroxy-1-(4-bromo-2,5-dimethoxyphenyl)-2-aminobutane Oxalate, reference compound], in data set [1], the Emax stood at 4.8%.

The compound `COc1cc([C@@H](O)[C@@H](C)N)c(OC)cc1Br` (as salt: hydrochloride) [Compound 11, (−)-threo-(1R,2R)-1-Hydroxy-1-(4-bromo-2,5-dimethoxyphenyl)-2-aminopropane Hydrochloride] had a melting point of 214 to 215 °C.

Regarding `COc1cc([C@@H](O)[C@H](C)N)c(OC)cc1Br` [Compound 9, (−)-erythro-(1R,2S)-1-Hydroxy-1-(4-bromo-2,5-dimethoxyphenyl)-2-aminopropane Hydro-chloride], in data set [1], the half-maximal effective concentration (EC50) was 84 nM and the Emax amounted to 22%. In data set [2], this compound yielded an EC50 of 1180 nM and an Emax of 68%.

With `COc1cc([C@H](O)[C@@H](C)N)c(OC)cc1Br` (as salt: hydrochloride) [Compound 8, (+)-erythro-(1S,2R)-1-Hydroxy-1-(4-bromo-2,5-dimethoxyphenyl)-2-aminopropane Hydrochloride], the melting point was in the range of 194 to 196 °C.

Consider `COc1cc([C@@H](OC)[C@H](C)N)c(OC)cc1Br` [Compound 12, (−)-erythro-(1R,2S)-1-Methoxy-1-(4-bromo-2,5-dimethoxyphenyl)-2-aminopropane Oxalate], for which the concentration giving a half-maximal response (EC50) was 1330 nM in data set [1] and 1080 nM in data set [2]. The Emax in data set [1] was determined as 54%; in data set [2], 100%.

For `COc1cc([C@@H](OC)[C@@H](C)N)c(OC)cc1Br` [Compound 14, (−)-thero-(1R,2R)-1-Methoxy-1-(4-bromo-2,5-dimethoxyphenyl)-2-aminopropane Oxalate], in data set [1], the EC50 came to 126 nM and the Emax came to 93%. For the same compound, in data set [2], the midpoint of the response, the EC50, lay at 42.4 nM and the Emax is 111%.

On to `COc1cc([C@@H](O)[C@@H](C)N)c(OC)cc1Br` [Compound 11, (−)-threo-(1R,2R)-1-Hydroxy-1-(4-bromo-2,5-dimethoxyphenyl)-2-aminopropane Hydrochloride], for which, in data set [1], the concentration giving a half-maximal response (EC50) was determined as 96.9 nM and the Emax amounted to 54%. Further, in data set [2], the EC50 worked out at 1130 nM and the Emax came out at 102%.
